Measurements: patent publication US20210030005A1, “BENZOXABOROLE COMPOSITIONS HAVING A GROWTH ENHANCING EFFECT” (BORAGEN, INC., priority 2018, published 2021)

Legend:
diseased soybeans = assay: Field trial, yield of diseased soybeans; format: in vivo, soybean
Protocol: (§1) In this example, diseased soybeans having Asian Soybean Rust (Phakopsora pachyrhizi) were treated with BAG8 and Azoxystrobin. Testing was performed to assess the fungicidal effect of the compounds on Asian Soybean Rust and to assess the growth enhancing effects of the compounds on the diseased soybeans.
(§2) Soybeans were planted into 6×30 ft plots and replicated four times in a randomized complete block design. Two treatments and an untreated control were tested for efficacy against Asian Soybean Rust (Phakopsora pachyrhizi) and assessed for yield at the conclusion of the growing season. Foliar applications of the two treatments, BAG8 at 0.25 pounds of active ingredient per acre and azoxystrobin at 0.25 pounds of active ingredient per acre, were applied to the plots at two separate times: growth stage R1 (flowering) and growth stage R3 (bean pod formation). Best practices were used consistently across the test plots with regard to field conditions such as fertilization, insect control, weed control, and irrigation. Disease assessments were taken in each plot 28 days after the final foliar fungicide application. At maturity, each plot was harvested using standard harvesting equipment. After shelling, the beans were weighed at 13% moisture and yield calculations extrapolated to bushels per acre.
(§3) Analysis of variance (ANOVA) was used to examine disease severity data and means were separated using Fisher's least significant difference (LSD) method at α=0.05. […]

canola seedlings = assay: Soil drench treatment on canola seedlings (perlite); format: in vivo; conditions: for Mean Stem Length: 10 days after germination, measured 10 days following drench
Protocol: (§4) Sample soil drench treatments were prepared by dissolving […], 3.19 mg, or 3.99 mg of BAG8 in 67.5 mL of acetone in separate vials. Each vial was then added to 202.5 mL of water and shaken vigorously to produce a suitable sample for soil drench treatment at rates of 75 g/A, 100 g/A, and 125 g/A, respectively.
Canola seeds were sown into pots filled with perlite growth medium and allowed to germinate under normal glass house conditions. 10 days after germination the pots were drenched with the respective BAG8 solutions. 10 days following the drench, stem lengths were measured. Analysis of variance was used to examine stem length data and means were separated using Fisher's least significant difference at α=0.05.

soybean seedlings = assay: Soil drench treatment on soybean seedlings (perlite); format: in vivo; conditions: for Mean Root Length: 10 days after germination, measured 10 days following drench
Protocol: as §4
Soybean seeds were sown into pots filled with perlite growth medium and allowed to germinate under normal glass house conditions. 10 days after germination the pots were drenched with the respective BAG8 solutions. 10 days following the drench, root lengths were measured. Analysis of variance was used to examine […] length data and means were separated using Fisher's least significant difference at α=0.05.

[1] = system: Asian Soybean Rust (Phakopsora pachyrhizi); assay: Field trial, Asian Soybean Rust severity on soybean; format: in vivo
Protocol: as §1, §2, §3

broccoli = assay: Soil drench growth enhancing effect, broccoli; format: in vivo; conditions: for Average Dry Matter Weight / Average Root Length / Average Shoot Height: 4 treatments every 14 days, 14 days after final treatment
Protocol: (§5) Boron-containing compounds/compositions were applied directly to the soil, and the growth of plants was measured. An exemplary embodiment of a benzoxaborole compound includes 5-chlorobenzo[c][1,2]oxaborol-1(3H)-ol, which may be referred to herein as BAG8.
(§6) Eight 2-gallon pots were filled with steamed soil for each of the five treatments listed below:
(§7) 3-4 seeds were planted into each pot at a depth of 1 inch and covered. All seedlings were subjected to 16 hours of daylight at ˜800 μmol/m^2/second (light intensity) provided by cool-white fluorescent lamps. Daytime temperatures were ˜25° C. and were dropped to ˜18° C. at night.
(§8) Solutions were prepared by first dissolving the appropriate amount of benzoxaborole in ethanol or acetone then adding to distilled water. 100 mL of treatment was applied to each pot in a circular motion to evenly coat the surface of the soil. These treatments were applied every 14 days for a total of 4 treatments, including the at-planting treatment. Each pot was monitored, and 50 mL of distilled water was added to each pot when soil was dry.
(§9) Germination and shoot height data were recorded every seven days. 14 days after the final treatment application, plants were carefully removed from each pot and final shoot length, root length, and dry matter weight were recorded.
(§10) This experiment was conducted on red table beet, broccoli, snow pea, turnips, and spring wheat.

snow pea = assay: Soil drench growth enhancing effect, snow pea; format: in vivo; conditions: for growth effect compared to untreated control: soil drench; for Average Dry Matter Weight / Average Root Length / Average Shoot Height: 4 treatments every 14 days, 14 days after final treatment
Protocol: as §5, §6, §7, §8, §9, §10

wheat seedlings = assay: Soil drench treatment on wheat seedlings (perlite); format: in vivo; conditions: for Mean Root Length: 10 days after germination, measured 10 days following drench
Protocol: as §4
Wheat seeds were sown into pots filled with perlite growth medium and allowed to germinate under normal glass house conditions. 10 days after germination the pots were drenched with the respective BAG8 solutions. 10 days following the drench, root and stem lengths were measured. Analysis of variance was used to examine root length data and means were separated using Fisher's least significant difference at α=0.05.

maize seeds = assay: Seed treatment growth effect on maize (germination trays); format: in vivo; conditions: for Mean Root Length / Mean Stem Length: suspension concentrate, 10 days
Protocol: A sample suspension concentrate was prepared by mixing 0.8 g of Atlas G-5002L, 0.8 g ATLOX 4913, 5 g of glycerin, 50 mg of anti-foam compound, 0.178 g of xanthan gum, 89 mg of anti-microbial, 53.08 g of water, and 40 g of BAG8. […] […] The container was then shaken to evenly coat the seeds and allowed to dry overnight. Once dry, 50 seeds from each rate and 50 untreated seeds were placed in separate seed germination trays with moist paper towel. 10 days later, root and stem lengths from each seed were taken. Analysis of variance was used to examine root and stem length data and means were separated using Fisher's least significant difference at α=0.05.

[2] = treatment B, 0.12 lb/A soil drench
[3] = treatment C, 0.25 lb/A soil drench
[4] = treatment D, 0.35 lb/A soil drench
[5] = treatment E, 0.60 lb/A soil drench
[6] = all tested application rates, maize seed treatment

OB1OCc2cc(Cl)ccc21 [BAG8, 5-chlorobenzo[c][1,2]oxaborol-1(3H)-ol]
increased soybean yield (diseased soybeans; 0.25 lb ai/A foliar): 281%
Yield (diseased soybeans; 0.25 lb ai/A foliar at R1 and R3, harvest at maturity, 13% moisture): 55.6 a bu/A
increased root length (canola seedlings; all tested application rates, soil drench, canola seedlings): 19-65%
Mean Stem Length (canola seedlings; soil drench 75 g ai/A): 39.2 mm
Mean Stem Length (canola seedlings; soil drench 100 g ai/A): 33.8 mm
Mean Stem Length (canola seedlings; soil drench 125 g ai/A): 47.1 mm
increased root length (soybean seedlings; all tested application rates, soil drench, soybean seedlings (Table 12)): 6-27%
Mean Root Length (soybean seedlings; soil drench 75 g ai/A): 329.5 mm
Mean Root Length (soybean seedlings; soil drench 100 g ai/A): 275.8 mm
Mean Root Length (soybean seedlings; soil drench 125 g ai/A): 309.7 mm
reduced disease in comparison to untreated control ([1]; 0.25 lb ai/A foliar): 47%
Disease Severity (% Leaf Coverage) ([1]; 0.25 lb ai/A foliar at R1 and R3, 28 days after final application): 48.2 c % Leaf Coverage
root length and dry matter weight compared with untreated control (broccoli; all rates (0.12-0.60 lb/A), soil drench): longer roots and greater dry matter weight than the untreated control
treatment effect on average shoot height (broccoli; all rates, soil drench): no treatment effect was present
Average Dry Matter Weight (broccoli; [2]): 10.70 mg
Average Root Length (broccoli; [2]): 5.60 cm
Average Shoot Height (broccoli; [2]): 4.50 cm
Average Dry Matter Weight (broccoli; [3]): 11.10 mg
Average Root Length (broccoli; [3]): 5.20 cm
Average Shoot Height (broccoli; [3]): 4.40 cm
Average Dry Matter Weight (broccoli; [4]): 11.30 mg
Average Root Length (broccoli; [4]): 5.30 cm
Average Shoot Height (broccoli; [4]): 4.90 cm
Average Dry Matter Weight (broccoli; [5]): 13.00 mg
Average Root Length (broccoli; [5]): 6.50 cm
Average Shoot Height (broccoli; [5]): 4.50 cm
growth effect compared to untreated control (snow pea; 0.25 pounds per acre): increased the shoot height, root length, and dry matter weight
growth effect compared to untreated control (snow pea; rates other than 0.25 pounds per acre): does not increase average shoot height, average root length, or average dry matter weight
Average Dry Matter Weight (snow pea; [2]): 102.70 mg
Average Root Length (snow pea; [2]): 7.10 cm
Average Shoot Height (snow pea; [2]): 6.90 cm
Average Dry Matter Weight (snow pea; [3]): 280.10 mg
Average Root Length (snow pea; [3]): 12.10 cm
Average Shoot Height (snow pea; [3]): 13.10 cm
Average Dry Matter Weight (snow pea; [4]): 185.70 mg
Average Root Length (snow pea; [4]): 8.00 cm
Average Shoot Height (snow pea; [4]): 9.40 cm
Average Dry Matter Weight (snow pea; [5]): 130.90 mg
Average Root Length (snow pea; [5]): 7.90 cm
Average Shoot Height (snow pea; [5]): 6.50 cm
increased root length relative to untreated control (wheat seedlings; all tested application rates, soil drench, wheat seedlings): 27-45%
Mean Root Length (wheat seedlings; soil drench 75 g ai/A): 580.4 mm
Mean Root Length (wheat seedlings; soil drench 100 g ai/A): 524.2 mm
Mean Root Length (wheat seedlings; soil drench 125 g ai/A): 507.0 mm
increased root length relative to untreated control (maize seeds; [6]): 49-70%
increased stem length relative to untreated control (maize seeds; [6]): 54-75%
Mean Root Length (maize seeds; seed treatment 0.25 lb ai/A): 122.0 mm
Mean Stem Length (maize seeds; seed treatment 0.25 lb ai/A): 141.0 mm
Mean Root Length (maize seeds; seed treatment 0.50 lb ai/A): 110.2 mm
Mean Stem Length (maize seeds; seed treatment 0.50 lb ai/A): 124.5 mm
Mean Root Length (maize seeds; seed treatment 0.75 lb ai/A): 125.1 mm
Mean Stem Length (maize seeds; seed treatment 0.75 lb ai/A): 136.5 mm
